Laboratory results from patent US20100004285A1, “POLYMORPH OF 4-[2-[4-[1-(2-ETHOXYETHYL)-1H-BENZIMIDAZOLE-2-YL]-1-PIPERIDINYL]ETHYL]-alpha alpha-DIMETHYL-BENZENEACETIC ACID” (FAES FARMA, S.A., priority 2002, published 2010).
Entries after “also recorded” stand apart in the source; their conditions may differ.

How the values were obtained:
[1] = system: histamine-induced lethality; experiment: preventing histamine-induced lethality in the guinea-pig; format: in vivo
[2] = stability of the crystalline polymorphic forms of bilastine; format: physicochemical
[3] = system: cutaneous capillary permeability induced by histamine; experiment: antagonism against cutaneous capillary permeability induced by histamine in the rat; format: in vivo

SMILES	antihistaminic properties: histamine-induced lethality [1]	stability of the crystalline form [2]	transformation into the other polymorphs [2]	stability of the polymorph at room temperature ([2]; room temperature)	stability when stored at temperatures above room temperature ([2]; stored at temperatures above room temperature)	antihistaminic properties: cutaneous capillary permeability induced by histamine [3]
CCOCCn1c(C2CCN(CCc3ccc(C(C)(C)C(=O)O)cc3)CC2)nc2ccccc21 [crystalline form 1, 4-[2-[4-[1-(2-ethoxyethyl)-1H benzimidazole-2-yl]-1-piperidinyl]ethyl]-αα-dimethyl-benzeneacetic acid]	preventing histamine-induced lethality	stable; also recorded: very stable	not transformed into any of the other polymorphs 2 and 3	very stable	stable	antagonism against cutaneous capillary permeability induced by histamine
CCOCCn1c(C2CCN(CCc3ccc(C(C)(C)C(=O)O)cc3)CC2)nc2ccccc21 [crystalline form 2, 4-[2-[4-[1-(2-ethoxyethyl)-1H benzimidazole-2-yl]-1-piperidinyl]ethyl]-αα-dimethyl-benzeneacetic acid]		stable				
CCOCCn1c(C2CCN(CCc3ccc(C(C)(C)C(=O)O)cc3)CC2)nc2ccccc21 [crystalline form 3, 4-[2-[4-[1-(2-ethoxyethyl)-1H benzimidazole-2-yl]-1-piperidinyl]ethyl]-αα-dimethyl-benzeneacetic acid]		not very stable; also recorded: the most unstable				
